Target: T1, KRAS-G12D (Homo sapiens, UniProt P01116, G12D)
T1 construct: endogenous in cells; host or cells: A-427 (ATCC), AGS, AsPc-1, Panc 04.03
Assay: KRAS-G12D degradation assay (Western Blot), AsPc-1 cells
Format: cell-based
Details: for DC50: 24 h; for Dmax: ASPC1, 24 h
Outline: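 Western blotting of lysates (5 μg protein) quantified KRAS against a β-actin reference after 24 h exposure to compound at final 0.03–3000 nM in 0.25% DMSO. Cells were A-427, AGS, AsPc-1 or Panc 04.03, all KRAS G12D, at 5×10^5/well. Degradation versus control yielded DC50 and Dmax.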

T1 sequence (P01116 1-188 isoform P01116-2 G12D): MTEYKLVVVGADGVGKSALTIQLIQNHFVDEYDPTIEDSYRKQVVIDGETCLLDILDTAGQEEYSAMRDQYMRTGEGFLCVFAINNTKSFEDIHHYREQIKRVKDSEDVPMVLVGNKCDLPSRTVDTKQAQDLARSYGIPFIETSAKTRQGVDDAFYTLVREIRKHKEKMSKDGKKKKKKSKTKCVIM

Structure (SMILES)	DC50	Dmax
C#Cc1c(F)ccc2cc(O)cc(-c3ncc4c(N5CC6CCC(C5)N6)nc(OCC5(CN6CCN(CC7CCC8(CC7)CCN(C(=O)c7ccc(Cl)c(N9CCC(=O)NC9=O)c7)CC8)CC6)CC5)nc4c3F)c12 [Example 6, 1-(5-(9-((4-((1-(((4-(3,8-diazabicyclo[3.2.1]octan-3-yl)-7-(8-ethynyl-7-fluoro-3-hydroxynaphthalen-1-yl)-8-fluoropyrido[4,3-d]pyrimidin-2-yl)oxy)methyl)cyclopropyl)methyl)piperazin-1-yl)methyl)-3-azaspiro[5.5]undecane-3-carbonyl)-2-chlorophenyl)dihydropyrimidine-2,4(1H,3H)-dione]	2.9 nM	100%
CCc1c(F)ccc2cc(O)cc(-c3ncc4c(N5CC6CCC(C5)N6)nc(OCC5(CN6CCN(CC7CCC8(CC7)CCN(C(=O)c7ccc(OC)c(N9CCC(=O)NC9=O)c7)CC8)CC6)CC5)nc4c3F)c12 [Example 15, 1-(5-(9-((4-((1-(((4-(3,8-diazabicyclo[3.2.1]octan-3-yl)-7-(8-ethyl-7-fluoro-3-hydroxynaphthalen-1-yl)-8-fluoropyrido[4,3-d]pyrimidin-2-yl)oxy)methyl)cyclopropyl)methyl)piperazin-1-yl)methyl)-3-azaspiro[5.5]undecane-3-carbonyl)-2-methoxyphenyl)dihydropyrimidine-2,4(1H,3H)-dione]	13 nM	99.3%
CCc1cccc2cc(O)cc(-c3ncc4c(N5CC6CCC(C5)N6)nc(OCC5(CN6CCN(CC7CCC8(CC7)CCN(C(=O)c7ccc(OC)c(N9CCC(=O)NC9=O)c7)CC8)CC6)CC5)nc4c3F)c12 [Example 20, 1-(5-(9-((4-((1-(((4-(3,8-diazabicyclo[3.2.1]octan-3-yl)-7-(8-ethyl-3-hydroxynaphthalen-1-yl)-8-fluoropyrido[4,3-d]pyrimidin-2-yl)oxy)methyl)cyclopropyl)methyl)piperazin-1-yl)methyl)-3-azaspiro[5.5]undecane-3-carbonyl)-2-methoxyphenyl)dihydropyrimidine-2,4(1H,3H)-dione]	0.57 nM	100%
C#Cc1c(F)ccc2cc(O)cc(-c3ccc4c(N5CC6CCC(C5)N6)nc(OCC5(CN6CCN(CC7CCC8(CC7)CCN(C(=O)c7ccc(C)c(N9CCC(=O)NC9=O)c7)CC8)CC6)CC5)nc4c3F)c12 [Example 42, 1-(5-(9-((4-((1-(((4-(3,8-diazabicyclo[3.2.1]octan-3-yl)-7-(8-ethynyl-7-fluoro-3-hydroxynaphthalen-1-yl)-8-fluoroquinazolin-2-yl)oxy)methyl)cyclopropyl)methyl)piperazin-1-yl)methyl)-3-azaspiro[5.5]undecane-3-carbonyl)-2-methylphenyl)dihydropyrimidine-2,4(1H,3H)-dione]	0.22 nM	100%
C#Cc1cccc2cc(O)cc(-c3ncc4c(N5CC6CCC(C5)N6)nc(OCC5(CN6CCN(CC7CCC8(CC7)CCN(C(=O)c7ccc(Cl)c(N9CCC(=O)NC9=O)c7)CC8)CC6)CC5)nc4c3F)c12 [Example 57, 1-(5-(9-((4-((1-(((4-(3,8-diazabicyclo[3.2.1]octan-3-yl)-7-(8-ethynyl-3-hydroxynaphthalen-1-yl)-8-fluoropyrido[4,3-d]pyrimidin-2-yl)oxy)methyl)cyclopropyl)methyl)piperazin-1-yl)methyl)-3-azaspiro [5.5]undecane-3-carbonyl)-2-chlorophenyl)dihydropyrimidine-2,4(1H,3H)-dione]	15 nM	99.5%
C#Cc1c(F)ccc2cc(O)cc(-c3ncc4c(N5CC6CCC(C5)N6)nc(OCC(C)CN5CCN(CC6CCC7(CC6)CCN(C(=O)c6ccc(OC)c(N8CCC(=O)NC8=O)c6)CC7)CC5)nc4c3F)c12 (stereo not drawn) [Example 84, 1-(5-(9-((4-(3-((4-(3,8-diazabicyclo[3.2.1]octan-3-yl)-7-(8-ethynyl-7-fluoro-3-hydroxynaphthalen-1-yl)-8-fluoropyrido[4,3-d]pyrimidin-2-yl)oxy)-2-methylpropyl)piperazin-1-yl)methyl)-3-azaspiro[5.5]undecane-3-carbonyl)-2-methoxyphenyl)dihydropyrimidine-2,4(1H,3H)-dione]	0.71 nM	99.6%
